Patent US20250186404A1, “METHODS OF USING A (THIAZOLYL)BENZENESULFONAMIDE DERIVATIVE” (Cyteir Therapeutics, Inc., priority 2023, published 2025)

Columns and labels:
Type in all cases: cell-based
[1] = tested on: Daudi human lymphoma cells; test: Reversal of 3-bromopyruvate-induced cytotoxicity; settings: 3-bromopyruvate (MCT1 substrate)
Protocol: Compound 67A data across 439 cell lines was cross-compared with available DepMap gene essentiality data and gene expression data. A genome-wide CRISPR screen identified genes that influenced sensitivity to Compound 67A. MDCKII cells expressing human MCT1 were treated with Compound 67A and transport of the MCT1 substrate, 2-thiophene-glyoxylic acid, was quantified by LC-MS. Compound 67A-mediated reversal of cytotoxicity induced by 3-bromopyruvate, an MCT1 substrate, was measured in Daudi human lymphoma cells. Lactate was measured using Lactate-Glo. Extracellular acidification and O2 consumption were measured by Seahorse.

[2] = tested on: ES2 ovarian cancer cell line; test: ES2 cytotoxicity (Cytotox Green) and cell viability (CellTiterGlo, NCI method)
Protocol: MCT4 was over-expressed in ES2 cells following lentiviral transduction. Cell viability was assessed in empty vector (EV) control and MCT4 over-expressing cells after Compound 67A treatment and relative cell growth was quantified using the NCI method (FIG. 10).
The ES2 ovarian cancer cell line was treated with a titration of Compound 67A, and cytotoxicity was assessed after 24 hours of treatment with Cytotox Green and cell viability after 96 hours with CellTiterGlo (FIG. 18).

Raji lymphoma cells = test: Seahorse XF ECAR and OCR measurement; settings: Seahorse XF Analyzer
Protocol: The utilization of glycolysis and oxidative phosphorylation (OXPHOS) were measured by the extracellular acidification rate (ECAR) and oxygen consumption rate (OCR), respectively, in Raji lymphoma cells via the Seahorse XF Analyzer.

CC(C)OC(=O)Nc1ccc(-c2cnc([C@H]3CC[C@H](NC(=O)OC(C)C)CC3)s2)c(S(=O)(=O)NC(C)(C)C)c1 [Compound 67A]
protection from cytotoxic effects of 3-bromopyruvate [1]: protected cells from the cytotoxic effects of 3-bromopyruvate | cytotoxic response ([2]; ES2, Cytotox Green after 24 hours and CellTiterGlo after 96 hours): induced a clear cytotoxic response | effect of MCT4 over-expression on anti-proliferative effects ([2]; ES2 MCT4 over-expressing vs empty vector control, NCI method): significantly reduced Compound 67A-mediated anti-proliferative effects | extracellular acidification rate (ECAR) (Raji lymphoma cells): dose-dependent decrease in ECAR | oxygen consumption rate (OCR) (Raji lymphoma cells): concomitant increase in OCR
